The values that follow come from patent publication EP4772520A1, “NOVEL PRODRUG-TYPE ANTICANCER AGENT TARGETING CANCER-SPECIFIC ENZYME ACTIVITY” (priority 2023, dated 2025).

SMILES strings stand for the structures. Like-named read-outs stand apart in the source and are kept apart here.

The AUC(0-inf) is the area under the concentration-time curve extrapolated to infinity.

This series in a line: Kinetic test in intraperitoneal administration. It is filed as in vivo, Mice. To be noted: 30 mg/kg i.p. On the procedure:
A specific procedure of the pharmacokinetics test is shown below. • (1) SN38-βGal (30 mg/kg) was dissolved in 100 µL of PBS and administered by i.p. • (2) 150 to 200 µL of anesthesia (in the case of a mixture of three types of Domitor + Betorphal + Mitazolam) was intraperitoneally administered 5 minutes before dissection at each time. • (3) The inside of a syringe was coated with sodium heparin, and at each evaluation time, the mouse was quickly stuck to the dissecting pad, and the abdomen was opened without bleeding, and whole blood was collected from the right ventricle with a 23 G needle. 100 µM β-Galactosidase inhibitor was added to whole blood. • (4) After whole blood collection, brain, heart, lung, liver, pancreas, spleen, kidney, stomach, small intestine, large intestine, muscle, and fat were taken out. As the muscle, a muscle near the thigh was resected. The weight of each organ was measured. • (5) Whole blood was centrifuged at 1200 G for 15 min at 4°C, and 200 µL of supernatant was collected. 800 µL of a solution of MeOH/MeCN = 1:1 (containing Rhodamine 123 = 25 µM as an internal standard) was added thereto, and the mixture was allowed to stand for 10 minutes. • (6) After standing, centrifugation was performed at 1700 G for 15 min at 4°C, and the supernatant was collected. About 80 µL of the mixture was fractionated, loaded on a Cosmo Spin Filter G (0.2 um), centrifuged at 12000 G for 5 min at 4°C, and filtered to collect a sample. • (7) Each resected organ was finely cut and put into a tube of Lysing Matrix D, 1000 µL of Lysis Buffer (added with 100 µM β-Galactosidase inhibitor) was added thereto, and the mixture was crushed with a shaker. • (8) The supernatant was collected from the tube of Lysing Matrix, and then centrifuged at 10,000 G for 5 min at 4°C to collect the supernatant to obtain a lysate solution. • (9) To 100 µL of the organ lysate solution, 200 µL of MeOH/MeCN = 1:1 (containing 30 µM of Rhodamine 123 as an internal standard) was added, and the mixture was allowed to stand for 10 minutes. • (10) Centrifugation was performed at 1700 G for 15min at 4°C to collect 200 µL of the supernatant. The supernatant was loaded on a Cosmo Spin Filter G (0.2 µm) and centrifuged at 12000 G for 5 min at 4°C to collect a sample. • (11) 50 µL of purified water and 50 µL of a filtered plasma sample or organ lysate sample were mixed, 10 µL of the mixture was injected into HPLC, and data of the area under the curve of the PDA spectrum at 380 nm (derived from SN 38) and 490 nm (derived from Rhodamine 123) were acquired, and then the respective numerical values were calculated from the volume for blood and the weight for organs by one inspection amount of Rhodamine 123.
A specific procedure of the intraperitoneal concentration evaluation test is shown below. • (1) Intraperitoneal administration (i.p.) was performed on an evaluation amount of the drug. • (2) 2.0 mL of PBS was administered by i.p. at each evaluation time, and the abdomen was immediately massaged and sacrificed so that the drug could be collected as much as possible on the PBS side after administration. A small hole was made in the abdomen, and PBS in the abdominal cavity was quickly collected with a 1.0 mL syringe in a pushing manner, and this solution was used as an peritoneal washing solution. • (3) To 200 µL of the collected peritoneal washing solution, 800 µL (containing Rhodamine 123 = 25 µM) of 800 µL MeCN/MeOH = 1:1 was added to precipitate proteins. The supernatant was collected by centrifugation at 1700 G for 5 min at 4°C. • (4) 80 µL of the recovered supernatant was loaded on a cosmo spin filter G and centrifuged at 12000 G for 5 min at 4°C, and 50 µL of purified water was added to 50 µL of the recovered material to adjust the total amount to 100 µL to prepare a sample. • (5) The concentration of SN38-βGal was measured by HPLC, and the concentration of the recovered peritoneal washing solution was calculated.

`CCc1c2c(nc3ccc(O[C@@H]4O[C@H](CO)[C@H](O)[C@H](O)[C@H]4O)cc13)-c1cc3c(c(=O)n1C2)COC(=O)[C@]3(O)CC` [SN38-βGal]: the “time of highest blood concentration” value is recorded as “around 10 minutes”. Also, the organ distribution result (10 minutes to 60 minutes after administration) is “the absorption from the small intestine was large, and only a slight distribution was confirmed in the brain”. For the same compound, under “at 30 minutes”, the intraperitoneal concentration result is “about 17%”. The half-life (mouse, blood, ip, read-out: blood half-life) is ~30 min. The compound further came in with an AUC(0-inf) (mouse, in vivo, ip) of 15900 ng·h/mL. The AUC(0-t) at 1 h (mouse, in vivo, ip, read-out: AUC0-1h) amounted to 15400 ng·h/mL. Besides, where the note is “mouse, in vivo, ip, read-out: t1/2 (converted)”, the half-life is 11.8 min.
